From patent publication US20260083851A1 (AVILAR THERAPEUTICS, INC., priority 2022, published 2026)

Legend:
[1] = molecular target: TNF (Homo sapiens, UniProt P01375); test: TNF FP Assay; type: binding; conditions: TNF 20 nM, 25° C., 2 hours; Table 2
Method: TNF (20 nM) and test compound in 47 mM HEPES pH 6.5, 47 mM NaCl, 0.9 mM EDTA, 0.007% Triton X-100 were incubated at 25° C. for 2 hours. Fluorescence data was read with an Envision and plotted versus Compound concentration and fit to a single-site binding model.

[2] = molecular target: T1, ASGP receptor (biotinylated ASGPR) (Homo sapiens, UniProt P07306); type: binding; conditions: SPR; Table 2; read-out: ASGPR SPR Binding KD
T1 construct: biotin (biotinylated)
T1 sequence (P07306 1-291): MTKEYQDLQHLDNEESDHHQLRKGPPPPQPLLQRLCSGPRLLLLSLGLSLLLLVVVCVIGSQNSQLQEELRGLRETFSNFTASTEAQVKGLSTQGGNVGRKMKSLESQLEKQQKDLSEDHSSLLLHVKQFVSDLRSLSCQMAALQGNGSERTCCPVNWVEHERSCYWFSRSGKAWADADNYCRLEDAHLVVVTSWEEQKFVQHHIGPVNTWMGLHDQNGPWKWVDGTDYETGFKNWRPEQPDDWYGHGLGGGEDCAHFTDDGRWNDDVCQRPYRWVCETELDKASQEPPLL

Sequence of TNF (P01375 77-233 limits assumed): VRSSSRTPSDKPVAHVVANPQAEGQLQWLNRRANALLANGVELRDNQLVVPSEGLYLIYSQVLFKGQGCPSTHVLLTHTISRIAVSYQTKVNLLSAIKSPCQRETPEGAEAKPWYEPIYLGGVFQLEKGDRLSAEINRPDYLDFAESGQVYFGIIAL

| IC50 [1] | Kd [2] | SMILES |
| --- | --- | --- |
| > 1000 nM | < 100 nM | CC1(C)C(=O)c2ccc(-c3cnc(N4CCN5C(=O)N(CCOCCNC(=O)CNC[C@H]6OC[C@H](Nc7cncc(C(F)(F)F)n7)[C@@H](O)[C@H]6O)C[C@@H]5C4)nc3)nc2N1Cc1cccnc1C#N [compound 10] |
| > 1000 nM | < 100 nM | CC1(C)C(=O)c2ccc(-c3cnc(N4CCN5C(=O)N(CCCNC(=O)c6ccc(C(=O)NC[C@H]7OC[C@H](Nc8cncc(C(F)(F)F)n8)[C@@H](O)[C@H]7O)cc6)C[C@@H]5C4)nc3)nc2N1Cc1cccnc1C#N [compound 13] |
| > 1000 nM | < 100 nM | CC1(C)C(=O)c2ccc(-c3cnc(N4CCN5C(=O)N(CCCNC(=O)[C@H]6CC[C@H](C(=O)NC[C@H]7OC[C@H](Nc8cncc(C(F)(F)F)n8)[C@@H](O)[C@H]7O)CC6)C[C@@H]5C4)nc3)nc2N1Cc1cccnc1C#N [compound 15] |
| > 1000 nM | < 100 nM | O=C(CCOCC(COCCC(=O)NCCOCCOCCOCCOC[C@H]1OC[C@H](Nc2cncc(C(F)(F)F)n2)[C@@H](O)[C@H]1O)NC(=O)COCCOCCOCC(=O)N1CCN(Cc2ccc(-c3c[nH]c4ccncc34)c(OCCc3ccc(-c4cccc5ccncc45)cc3)c2)CC1)NCCOCCOCCOCCOC[C@H]1OC[C@H](Nc2cncc(C(F)(F)F)n2)[C@@H](O)[C@H]1O [compound 9] |

Further lines, the compound ahead of its results:

| SMILES | IC50 [1] | Kd [2] |
| --- | --- | --- |
| O=C(CC(=O)NC[C@H]1OC[C@H](Nc2cncc(C(F)(F)F)n2)[C@@H](O)[C@H]1O)NCCOCCOCCOCc1ccc(-c2cccc3ccncc23)c(OCCc2ccc(-c3cccc4ccncc34)cc2)c1 [compound 1] | 100 to 500 nM | < 100 nM |
| O=C(COCCOCCOCCOCCOCC(=O)N1CCN(Cc2ccc(-c3c[nH]c4ccncc34)c(OCCc3ccc(-c4cccc5ccncc45)cc3)c2)CC1)NC[C@H]1OC[C@H](Nc2cncc(C(F)(F)F)n2)[C@@H](O)[C@H]1O [compound 7] | < 100 nM | < 100 nM |
| O=C(NC[C@H]1OC[C@H](Nc2cncc(C(F)(F)F)n2)[C@@H](O)[C@H]1O)N1CCN(Cc2ccc(-c3c[nH]c4ccncc34)c(OCCc3ccc(-c4cccc5ccncc45)cc3)c2)CC1 [compound 8] | > 1000 nM | < 100 nM |
| O=C(COCCOCC(=O)N1CCN(Cc2ccc(-c3c[nH]c4ccncc34)c(OCCc3ccc(-c4cccc5ccncc45)cc3)c2)CC1)NC[C@H]1OC[C@H](Nc2cncc(C(F)(F)F)n2)[C@@H](O)[C@H]1O [compound 3] | < 100 nM | < 100 nM |
